Reference: ChEMBL document CHEMBL1909046, “DrugMatrix in vitro pharmacology data”

Columns and labels:
[1] = target: T1, Angiotensin-converting enzyme (Oryctolagus cuniculus, UniProt P12822); type: tissue-based, Lung;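 note: enzymatic inhibition of angiotensin-converting enzyme measured with FAPGG as the substrate; in other assays of this panel Not Active means under 50% inhibition at 10 µM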
T1 sequence (P12822 whole entry): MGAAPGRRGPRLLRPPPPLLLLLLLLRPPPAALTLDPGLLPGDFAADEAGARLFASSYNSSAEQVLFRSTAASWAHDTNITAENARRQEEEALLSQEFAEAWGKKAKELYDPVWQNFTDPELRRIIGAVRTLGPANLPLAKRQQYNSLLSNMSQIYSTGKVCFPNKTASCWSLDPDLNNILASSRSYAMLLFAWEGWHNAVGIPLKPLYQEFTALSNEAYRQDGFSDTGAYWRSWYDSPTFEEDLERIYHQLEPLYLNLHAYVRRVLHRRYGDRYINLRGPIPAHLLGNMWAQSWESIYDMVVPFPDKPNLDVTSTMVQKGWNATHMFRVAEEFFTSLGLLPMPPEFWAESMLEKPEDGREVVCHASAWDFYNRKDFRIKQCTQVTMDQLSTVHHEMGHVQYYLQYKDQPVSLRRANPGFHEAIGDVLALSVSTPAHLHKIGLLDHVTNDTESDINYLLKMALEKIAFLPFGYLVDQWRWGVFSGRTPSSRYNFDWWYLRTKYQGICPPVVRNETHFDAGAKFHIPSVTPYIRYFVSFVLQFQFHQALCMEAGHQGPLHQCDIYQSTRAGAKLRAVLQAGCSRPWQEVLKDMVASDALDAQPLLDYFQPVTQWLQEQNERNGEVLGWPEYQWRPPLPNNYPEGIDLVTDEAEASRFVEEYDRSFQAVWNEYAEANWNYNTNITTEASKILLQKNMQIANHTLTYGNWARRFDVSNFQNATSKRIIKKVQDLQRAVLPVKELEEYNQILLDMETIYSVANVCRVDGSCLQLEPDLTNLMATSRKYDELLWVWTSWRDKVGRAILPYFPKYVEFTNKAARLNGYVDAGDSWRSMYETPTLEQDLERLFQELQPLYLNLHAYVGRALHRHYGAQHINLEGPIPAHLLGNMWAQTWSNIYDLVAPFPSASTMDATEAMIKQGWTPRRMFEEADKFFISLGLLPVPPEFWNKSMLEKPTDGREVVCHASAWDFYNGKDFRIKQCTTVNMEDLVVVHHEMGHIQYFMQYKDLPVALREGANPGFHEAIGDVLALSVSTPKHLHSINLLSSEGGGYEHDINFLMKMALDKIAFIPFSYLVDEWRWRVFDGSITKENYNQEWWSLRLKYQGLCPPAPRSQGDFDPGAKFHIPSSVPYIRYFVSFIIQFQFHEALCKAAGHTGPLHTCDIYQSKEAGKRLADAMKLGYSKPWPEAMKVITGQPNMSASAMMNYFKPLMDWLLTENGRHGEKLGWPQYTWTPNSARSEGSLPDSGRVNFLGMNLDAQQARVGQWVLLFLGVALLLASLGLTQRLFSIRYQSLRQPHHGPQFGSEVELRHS

[2] = target: Beta-3 adrenergic receptor (Homo sapiens, UniProt P13945); experiment: DRUGMATRIX: Adrenergic beta3 radioligand binding (ligand: [125I] Cyanopindolol); type: cell membranes, HEK293, Membrane; settings: hek293; Not Active = under 50% inhibition at 10 µM
Sequence of Beta-3 adrenergic receptor (P13945 whole entry): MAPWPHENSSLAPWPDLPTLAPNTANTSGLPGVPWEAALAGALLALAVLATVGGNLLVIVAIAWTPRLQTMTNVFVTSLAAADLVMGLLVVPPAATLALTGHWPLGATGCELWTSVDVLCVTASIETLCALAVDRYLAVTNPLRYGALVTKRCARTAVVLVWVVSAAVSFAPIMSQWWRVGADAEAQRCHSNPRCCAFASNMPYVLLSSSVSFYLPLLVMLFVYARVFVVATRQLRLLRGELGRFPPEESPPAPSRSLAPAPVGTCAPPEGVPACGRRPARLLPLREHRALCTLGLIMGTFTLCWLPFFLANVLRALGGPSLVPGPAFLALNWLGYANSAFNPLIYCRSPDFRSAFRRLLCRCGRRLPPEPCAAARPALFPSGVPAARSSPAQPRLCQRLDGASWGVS

[3] = target: T2, 3-hydroxy-3-methylglutaryl-coenzyme A reductase (Homo sapiens, UniProt P04035); parameters: species or system Escherichia coli;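 note: enzyme inhibition assay of HMG-CoA reductase using radiolabeled [14C]HMG-CoA as substrate; in other assays of this panel Not Active means under 50% inhibition at 10 µM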
T2 sequence (P04035 whole entry): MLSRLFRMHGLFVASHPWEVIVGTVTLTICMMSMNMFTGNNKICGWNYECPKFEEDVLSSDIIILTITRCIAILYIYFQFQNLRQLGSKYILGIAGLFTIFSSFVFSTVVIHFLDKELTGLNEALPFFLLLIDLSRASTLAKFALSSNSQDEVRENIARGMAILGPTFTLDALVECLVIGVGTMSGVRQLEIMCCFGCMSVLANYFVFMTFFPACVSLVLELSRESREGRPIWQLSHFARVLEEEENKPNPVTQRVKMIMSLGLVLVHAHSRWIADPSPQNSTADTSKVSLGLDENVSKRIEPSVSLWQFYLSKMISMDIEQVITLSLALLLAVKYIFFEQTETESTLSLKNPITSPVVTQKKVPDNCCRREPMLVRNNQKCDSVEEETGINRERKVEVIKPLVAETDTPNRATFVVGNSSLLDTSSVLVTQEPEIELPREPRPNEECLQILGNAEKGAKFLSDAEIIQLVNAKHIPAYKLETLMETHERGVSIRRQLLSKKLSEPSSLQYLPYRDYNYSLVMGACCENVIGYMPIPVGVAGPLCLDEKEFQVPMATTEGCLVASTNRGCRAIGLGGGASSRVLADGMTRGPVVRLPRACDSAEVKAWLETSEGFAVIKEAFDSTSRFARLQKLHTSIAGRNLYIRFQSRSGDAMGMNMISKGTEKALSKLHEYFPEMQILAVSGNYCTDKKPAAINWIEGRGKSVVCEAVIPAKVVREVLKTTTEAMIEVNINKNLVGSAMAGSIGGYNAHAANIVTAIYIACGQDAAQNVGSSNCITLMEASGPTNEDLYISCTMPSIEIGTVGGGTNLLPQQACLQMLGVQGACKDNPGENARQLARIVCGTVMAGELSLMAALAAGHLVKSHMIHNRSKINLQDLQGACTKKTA

[4] = DRUGMATRIX: Nicotinic Acetylcholine radioligand binding (ligand: [125I] Epibatidine); type: cell membranes, Membrane; settings: imr-32; Not Active = under 50% inhibition at 10 µM
[5] = target: Aldo-keto reductase family 1 member B1 (Rattus norvegicus, UniProt P07943); experiment: biochemical; type: tissue-based, Lens of camera-type eye;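 note: inhibition of aldose reductase enzyme activity, measured with DL-glyceraldehyde as the substrate; in other assays of this panel Not Active means under 50% inhibition at 10 µM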
[6] = target: T3, Muscarinic acetylcholine receptor M4 (Homo sapiens, UniProt P08173); type: cell membranes, CHO-K1, Membrane; settings: cho-k1; note: in other assays of this panel Not Active means under 50% inhibition at 10 µM
T3 sequence (P08173 whole entry): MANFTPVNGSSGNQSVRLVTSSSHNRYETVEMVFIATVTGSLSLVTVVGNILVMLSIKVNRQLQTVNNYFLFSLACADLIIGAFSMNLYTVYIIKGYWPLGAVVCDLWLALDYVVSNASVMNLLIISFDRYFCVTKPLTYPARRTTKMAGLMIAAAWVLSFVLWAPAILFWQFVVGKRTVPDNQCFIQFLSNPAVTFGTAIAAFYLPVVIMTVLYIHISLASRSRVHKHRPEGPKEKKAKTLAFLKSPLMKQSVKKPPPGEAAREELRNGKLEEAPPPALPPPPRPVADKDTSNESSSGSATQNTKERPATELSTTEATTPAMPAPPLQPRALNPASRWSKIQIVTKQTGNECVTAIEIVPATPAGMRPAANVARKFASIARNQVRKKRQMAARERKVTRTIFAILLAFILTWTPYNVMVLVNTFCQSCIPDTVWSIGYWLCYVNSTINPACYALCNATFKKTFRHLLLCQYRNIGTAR

[7] = DRUGMATRIX: Glutamate, NMDA, Agonism radioligand binding (ligand: [3H] CGP-39653); type: cell membranes, Rattus norvegicus, Wistar, Cerebral cortex, Membrane; settings: Not Active = under 50% inhibition at 10 µM

C#C[C@]1(O)CC[C@H]2[C@@H]3CCc4cc(O)ccc4[C@H]3CC[C@@]21C [ETHINYL ESTRADIOL]
Not Active: IC50 [1] | IC50 [2] | IC50 [3] | IC50 [4] | Ki [4] | IC50 [5] | IC50 [6] | IC50 [7] | Ki [7]

OCCO [ETHYLENE GLYCOL]
Not Active: IC50 [1] | IC50 [2] | IC50 [3] | IC50 [4] | Ki [4] | IC50 [5] | IC50 [6] | IC50 [7] | Ki [7]

CC(=O)OCC(CCn1cnc2cnc(N)nc21)COC(C)=O [FAMCICLOVIR]
Not Active: IC50 [1] | IC50 [2] | IC50 [3] | IC50 [4] | Ki [4] | IC50 [5] | IC50 [6] | IC50 [7] | Ki [7]

O=C(O)Cc1ccc(-c2ccccc2)cc1 [FELBINAC]
Not Active: IC50 [1] | IC50 [2] | IC50 [3] | IC50 [4] | Ki [4] | IC50 [5] | IC50 [6] | IC50 [7] | Ki [7]

CCOC(=O)C1=C(C)NC(C)=C(C(=O)OC)C1c1cccc(Cl)c1Cl (stereo not drawn) [FELODIPINE]
Not Active: IC50 [1] | IC50 [2] | IC50 [3] | IC50 [4] | Ki [4] | IC50 [5] | IC50 [6] | IC50 [7] | Ki [7]

CC(C(=O)O)c1ccc(-c2ccccc2)c(F)c1 (stereo not drawn) [FLURBIPROFEN]
Not Active: IC50 [1] | IC50 [2] | IC50 [3] | IC50 [4] | Ki [4] | IC50 [5] | IC50 [6] | IC50 [7] | Ki [7]

Cc1cn[nH]c1 [FOMEPIZOLE]
Not Active: IC50 [1] | IC50 [2] | IC50 [3] | IC50 [4] | Ki [4] | IC50 [5] | IC50 [6] | IC50 [7] | Ki [7]

NC[C@@H]1O[C@H](O[C@H]2[C@@H](O)[C@H](O[C@@H]3[C@@H](O)[C@H](N)C[C@H](N)[C@H]3O[C@H]3O[C@H](CN)[C@@H](O)[C@H](O)[C@H]3N)O[C@@H]2CO)[C@H](N)[C@@H](O)[C@@H]1O [FRAMYCETIN]
Not Active: IC50 [1] | IC50 [2] | IC50 [3] | IC50 [4] | Ki [4] | IC50 [5] | IC50 [6] | IC50 [7] | Ki [7]

C[C@H]([C@](O)(Cn1cncn1)c1ccc(F)cc1F)S(C)(=O)=O [GENACONAZOLE]
Not Active: IC50 [1] | IC50 [2] | IC50 [3] | IC50 [4] | Ki [4] | IC50 [5] | IC50 [6] | IC50 [7] | Ki [7]

Cc1c(F)c(N2CCNC(C)C2)cc2c1c(=O)c(C(=O)O)cn2C1CC1 (stereo not drawn) [GREPAFLOXACIN]
Not Active: IC50 [1] | IC50 [2] | IC50 [3] | IC50 [4] | Ki [4] | IC50 [5] | IC50 [6] | IC50 [7] | Ki [7]

COc1ccccc1OCC(O)CO (stereo not drawn) [GUAIFENESIN]
Not Active: IC50 [1] | IC50 [2] | IC50 [3] | IC50 [4] | Ki [4] | IC50 [5] | IC50 [6] | IC50 [7] | Ki [7]

N=C(N)N/N=C/c1c(Cl)cccc1Cl [GUANABENZ]
Not Active: IC50 [1] | IC50 [2] | IC50 [3] | IC50 [4] | Ki [4] | IC50 [5] | IC50 [6] | IC50 [7] | Ki [7]

C[C@]12CCC(=O)C=C1CC[C@@H]1[C@@H]2[C@@H](O)C[C@@]2(C)[C@H]1CC[C@]2(O)C(=O)CO [HYDROCORTISONE]
Not Active: IC50 [1] | IC50 [2] | IC50 [3] | IC50 [4] | Ki [4] | IC50 [5] | IC50 [6] | IC50 [7] | Ki [7]

C/C=C\c1ccc(O)c(OC)c1 [ISOEUGENOL]
Not Active: IC50 [1] | IC50 [2] | IC50 [3] | IC50 [4] | Ki [4] | IC50 [5] | IC50 [6] | IC50 [7] | Ki [7]

NC[C@H]1O[C@H](O[C@H]2[C@H](O)[C@@H](O[C@H]3O[C@H](CO)[C@@H](O)[C@H](N)[C@H]3O)[C@H](N)C[C@@H]2N)[C@H](O)[C@@H](O)[C@@H]1O [KANAMYCIN]
Not Active: IC50 [1] | IC50 [2] | IC50 [3] | IC50 [4] | Ki [4] | IC50 [5] | IC50 [6] | IC50 [7] | Ki [7]

CC(C(=O)O)c1ccc(CC2CCCC2=O)cc1 (stereo not drawn) [LOXOPROFEN]
Not Active: IC50 [1] | IC50 [2] | IC50 [3] | IC50 [4] | Ki [4] | IC50 [5] | IC50 [6] | IC50 [7] | Ki [7]

Cc1cccc(Nc2ccccc2C(=O)O)c1C [MEFENAMIC ACID]
Not Active: IC50 [1] | IC50 [2] | IC50 [3] | IC50 [4] | Ki [4] | IC50 [5] | IC50 [6] | IC50 [7] | Ki [7]
